Holding throughout (type): physicochemical
Series [1] is described as follows: Dissolution test, puddle method, first solution pH 1.2, various chemicals (Test Example 5). The conditions noted are these: raw material of the chemical; dissolved for 5 minutes; first solution (pH 1.2) 500 ml; 50 rpm; a dose of each chemical. The procedure: Samples 8-1 and 8-9, and raw materials of various chemicals as the control, were examined by the puddle method in an dissolution test according to the Japanese Pharmacopoeia, and the amount of ibuprofen (μg/ml) dissolved for 5 minutes in the test was determined. The test solution used was the first solution (pH 1.2) in a disintegration test in the Japanese Pharmacopoeia, the amount of the dissolution medium was 500 ml, and the number of puddle revolutions was 50 rpm. Each sample contains a dose of each chemical.

Series [2] is described as follows: Dissolution test, puddle method, first solution pH 1.2 (Test Example 4). The procedure:
Samples 7-1 and 7-9, and the raw ibuprofen powder as the control, were examined by the puddle method in an dissolution test according to the Japanese Pharmacopoeia, and the amount of ibuprofen (μg/ml) dissolved for 5 minutes in the test was determined. The test solution used was a first solution (pH 1.2) in a disintegration test in the Japanese Pharmacopoeia, the amount of the dissolutuion medium was 500 ml, and the number of puddle revolutions was 50 rpm. The content of ibuprofen in every sample was 150 mg.

Series [3] can be described thus: Dissolution test, puddle method, Japanese Pharmacopoeia, water (Test Example 1). The conditions noted are these: ibuprofen dissolved for 5 minutes; water 500 ml; 100 rpm; ibuprofen content 150 mg. The procedure: Each sample was tested by the puddle method in an dissolution test according to the Japanese Pharmacopoeia, and the amount of ibuprofen (μg/ml) dissolved for 5 minutes in the test was determined. Water was used as the test solution, the amount of the dissolution medium was 500 ml, and the number of puddle revolutions was 100 rpm. The raw ibuprofen material, Samples 5-1 to 5-7, and Sample 6 were examined respectively in the test. The content of ibuprofen in every sample was 150 mg.

As to `COc1ccc2c(c1)c(CC(=O)O)c(C)n2C(=O)c1ccc(Cl)cc1` [Indomethacin], the “Dissolved amount, Control” value in series [1] amounted to 0.09 µg/mL.

For `CC(C(=O)O)c1cccc(Oc2ccccc2)c1` (stereo not shown) [Phenoprofen], the “Dissolved amount, Control” value in series [1] was found to be 11.47 µg/mL.

For the molecule `CC(C)Cc1ccc(C(C)C(=O)O)cc1` (stereo not shown) [Ibuprofen, ibuprofen], the “Solubility in first solution (pH 1.2), in words” value in series [2] (first solution (pH 1.2) of the disintegration test) is reported as “not dissolved”. The Dissolved amount in series [2] (ibuprofen dissolved for 5 minutes, first solution (pH 1.2) 500 ml, 50 rpm, ibuprofen content 150 mg) worked out at 0.00 µg/mL; in series [3], 5.7 µg/mL. Moreover, the “Dissolved amount, Control” value in series [1] is 0.00 µg/mL.

For the molecule `CC(C(=O)O)c1ccc(CC2CCCC2=O)cc1` (stereo not shown) [Loxoprofen], in series [1], the “Dissolved amount, Control” value is 101.73 µg/mL.

Regarding `CC(C(=O)O)c1cccc(C(=O)c2ccccc2)c1` (stereo not shown) [Ketoprofen], the “Dissolved amount, Control” value in series [1] is 1.57 µg/mL.

With `CC(C(=O)O)c1ccc2c(c1)Cc1cccnc1O2` (stereo not shown) [Pranoprofen], the “Dissolved amount, Control” value in series [1] was 17.81 µg/mL.

For the molecule `CC(C(=O)O)c1ccc(-c2ccccc2)c(F)c1` (stereo not shown) [Flurbiprofen], the “Dissolved amount, Control” value in series [1] worked out at 0.22 µg/mL.
